Reference: patent US20150291514A1, “N-Aminosulfonyl Benzamides” (Pfizer Limited, priority 2012, published 2015)
Structures can show the parent of a compound that is named as a salt.

These compounds were tested against T1, Nav1.7 (or SCN9A) channel (Homo sapiens, UniProt Q15858) (assay: Nav1.7 (hSCN9A) PatchXpress electrophysiology assay). Details: estimated IC50 from single point electrophysiology data; PatchXpress platform; HEK cells expressing hSCN9A, held at V1/2 of inactivation; read-out: Nav1.7 EIC50.
T1 construct: expressed in transfected cells
Type: cell-based
Procedure: The ability of the compounds of formula (I) to block the Nav1.7 (or SCN9A) channel were measured using the assay described below.
Human Embryonic Kidney (HEK) cells were transfected with an hSCN9A construct using lipofectamine reagent (Invitrogen), using standard techniques. Cells stably expressing the hSCN9A constructs were identified by their resistance to G-418 (400 μg/ml). Clones were screened for expression using the whole-cell voltage-clamp technique.
HEK cells stably transfected with hSCN9A were maintained in DMEM medium supplemented with 10% heat-inactivated fetal bovine serum and 400 μg/ml G-418 in an incubator at 37° C. with a humidified atmosphere of 10% CO2. For HTS, cells were harvested from flasks by trypsinization and replated in an appropriate multi-well plate (typically 96 or 384 wells/plate) such that confluence would be achieved within 24 hours of plating. For electrophysiological studies, cells were removed from the culture flask by brief trypsinization and re-plated at low density onto glass cover slips. Cells were typically used for electrophysiological experiments within 24 to 72 hours after plating.
Cover slips containing HEK cells expressing hSCN9A were placed in a bath on the stage of an inverted microscope and perfused (approximately 1 ml/minutes) with extracellular solution of the following composition: 138 mM NaCl, 2 mM CaCl2, 5.4 mM KCl, 1mM MgCl2, 10 mM glucose, and 10 mM HEPES, pH 7.4, with NaOH. […] The osmolarity of the extracellular and intracellular solutions was 300 mOsm/kg and 295 mOsm/kg, respectively. All recordings were made at room temperature (22-24° C.) using AXOPATCH 200B amplifiers and PCLAMP software (Axon Instruments, Burlingame, Calif.).
hSCN9A currents in HEK cells were measured using the whole-cell configuration of the patch-clamp technique (Hamill et al., 1981). Uncompensated series resistance was typically 2 to 5 mega ohms and >85% series resistance compensation was routinely achieved. As a result, voltage errors were negligible and no correction was applied. Current records were acquired at 20 to 50 KHz and filtered at 5 to 10 KHz.
HEK cells stably transfected with hSCN9A were viewed under Hoffman contrast optics and placed in front of an array of flow pipes emitting either control or compound-containing extracellular solutions. All compounds were dissolved in dimethyl sulfoxide to make 10 mM stock solutions, which were then diluted into extracellular solution to attain the final concentrations desired. […] The voltage-dependence of inactivation was determined by applying a series of depolarizing prepulses (8 sec long in 10 mV increments) from a negative holding potential. The voltage was then immediately stepped to 0 mV to assess the magnitude of the sodium current. Currents elicited at 0 mV were plotted as a function of prepulse potential to allow estimation of the voltage at which 50% of the channels were inactivated (midpoint of inactivation or V1/2). Compounds were tested for their ability to inhibit hSCN9A sodium channels by activating the channel with a 20 msec voltage step to 0 mV following an 8 second conditioning prepulse to the empirically determined V1/2. Compound effect (% inhibition) was determined by difference in current amplitude before and after application of test compounds. For ease of comparison, “estimated IC-50” (EIC50) values were calculated from single point electrophysiology data by the following equation, (tested concentration, uM)×(100-% inhibition/% inhibition). Inhibition values <20% and >80% were excluded from the calculation.
Electrophysiological assays were conducted with PatchXpress 7000 hardware and associated software (Molecular Devices Corp). All assay buffers and solutions were identical to those used in conventional whole-cell voltage clamp experiments described above. hSCN9A cells were grown as above to 50%-80% confluency and harvested by trypsinization. […]

T1 sequence (Q15858 whole entry): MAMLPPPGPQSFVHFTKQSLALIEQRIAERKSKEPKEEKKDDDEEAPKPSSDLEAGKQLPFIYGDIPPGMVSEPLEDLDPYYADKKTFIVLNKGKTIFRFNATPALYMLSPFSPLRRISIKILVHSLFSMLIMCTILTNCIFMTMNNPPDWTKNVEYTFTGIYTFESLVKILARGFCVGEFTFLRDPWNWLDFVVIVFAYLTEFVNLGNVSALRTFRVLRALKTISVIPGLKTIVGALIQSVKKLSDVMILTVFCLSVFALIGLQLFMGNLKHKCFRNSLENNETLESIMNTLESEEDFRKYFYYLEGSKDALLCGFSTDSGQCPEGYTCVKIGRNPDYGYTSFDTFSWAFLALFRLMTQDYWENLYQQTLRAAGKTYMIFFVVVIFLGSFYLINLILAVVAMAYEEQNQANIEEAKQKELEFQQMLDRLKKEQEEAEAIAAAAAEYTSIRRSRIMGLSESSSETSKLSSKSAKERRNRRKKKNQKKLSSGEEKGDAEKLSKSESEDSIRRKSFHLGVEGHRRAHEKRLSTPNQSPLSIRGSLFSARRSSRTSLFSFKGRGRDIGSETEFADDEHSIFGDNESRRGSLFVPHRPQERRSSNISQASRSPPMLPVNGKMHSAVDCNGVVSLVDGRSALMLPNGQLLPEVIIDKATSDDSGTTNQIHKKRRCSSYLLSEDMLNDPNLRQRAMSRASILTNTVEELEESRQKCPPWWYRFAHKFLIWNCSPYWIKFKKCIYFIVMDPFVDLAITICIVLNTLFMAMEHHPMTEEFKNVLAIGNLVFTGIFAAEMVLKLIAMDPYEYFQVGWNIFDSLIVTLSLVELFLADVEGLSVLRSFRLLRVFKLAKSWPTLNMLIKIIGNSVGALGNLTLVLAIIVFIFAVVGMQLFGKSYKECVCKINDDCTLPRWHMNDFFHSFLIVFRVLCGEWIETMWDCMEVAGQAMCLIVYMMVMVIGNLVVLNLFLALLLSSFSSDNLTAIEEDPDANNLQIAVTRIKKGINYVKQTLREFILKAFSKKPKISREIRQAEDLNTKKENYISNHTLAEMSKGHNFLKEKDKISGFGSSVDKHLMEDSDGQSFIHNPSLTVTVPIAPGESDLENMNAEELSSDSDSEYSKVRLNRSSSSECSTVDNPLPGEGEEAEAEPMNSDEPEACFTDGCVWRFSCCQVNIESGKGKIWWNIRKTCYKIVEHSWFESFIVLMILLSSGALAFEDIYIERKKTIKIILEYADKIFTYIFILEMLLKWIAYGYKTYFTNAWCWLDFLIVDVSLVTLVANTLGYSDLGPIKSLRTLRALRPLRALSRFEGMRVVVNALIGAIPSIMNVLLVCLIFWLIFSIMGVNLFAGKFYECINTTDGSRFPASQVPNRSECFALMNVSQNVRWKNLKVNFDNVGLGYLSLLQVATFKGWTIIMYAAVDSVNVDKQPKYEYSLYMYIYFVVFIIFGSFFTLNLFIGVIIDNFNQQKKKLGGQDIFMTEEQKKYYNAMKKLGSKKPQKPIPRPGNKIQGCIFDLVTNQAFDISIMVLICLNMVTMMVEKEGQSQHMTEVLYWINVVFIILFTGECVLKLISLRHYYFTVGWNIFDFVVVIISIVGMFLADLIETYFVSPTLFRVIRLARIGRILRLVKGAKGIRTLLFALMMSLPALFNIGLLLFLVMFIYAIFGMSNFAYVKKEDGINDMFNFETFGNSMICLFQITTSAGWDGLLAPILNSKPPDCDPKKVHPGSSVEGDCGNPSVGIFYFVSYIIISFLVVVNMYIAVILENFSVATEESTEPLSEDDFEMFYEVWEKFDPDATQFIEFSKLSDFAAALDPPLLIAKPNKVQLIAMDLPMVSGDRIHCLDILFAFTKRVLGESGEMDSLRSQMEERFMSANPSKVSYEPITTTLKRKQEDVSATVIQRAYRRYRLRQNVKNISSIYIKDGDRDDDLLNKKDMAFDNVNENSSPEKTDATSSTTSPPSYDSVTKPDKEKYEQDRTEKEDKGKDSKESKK

IC50	SMILES
2600 nM	CN(C)S(=O)(=O)NC(=O)c1ccc(Oc2ccc(Cl)c(C(F)(F)F)c2)cc1 [Example 1, 4-[4-Chloro-3-(trifluoromethyl)phenoxy]-N-[(dimethylamino)sulfonyl]benzamide diethylamine salt]
4800 nM	CNS(=O)(=O)NC(=O)c1ccc(Oc2ccc(Cl)c(C(F)(F)F)c2)cc1 [Example 3, 4-[4-chloro-3-(trifluoromethyl)phenoxy]-N-[(methylamino)sulfonyl]benzamide diethylamine salt]
> 3000 nM	COc1cc(Cl)ccc1Oc1ccc(C(=O)NS(N)(=O)=O)cc1 [Example 4, N-(aminosulfonyl)-4-(4-chloro-2-methoxyphenoxy)benzamide]
7100 nM	COc1cc(Cl)ccc1Oc1ccc(C(=O)NS(=O)(=O)N(C)C)cc1 [Example 5, 4-(4-chloro-2-methoxyphenoxy)-N-[(dimethylamino)sulfonyl]benzamide]
7300 nM	COc1cc(Cl)ccc1Oc1cc(F)c(C(=O)NS(N)(=O)=O)cc1F [Example 6, N-(aminosulfonyl)-4-(4-chloro-2-methoxvphenoxy)-2,5-difluorobenzamide]
> 3000 nM	COc1cc(Cl)ccc1Oc1cc(F)c(C(=O)NS(=O)(=O)N(C)C)cc1F [Example 7, 4-(4-chloro-2-methoxvphenoxy)-N-[(dimethylamino)sulfonyl]-2,5-difluorobenzamide]
> 30000 nM	COc1ccccc1Oc1ccc(C(=O)NS(=O)(=O)N(C)C)cc1 [Example 8, N-[(dimethylamino)sulfonyl]-4-(2-methoxyphenoxy)benzamide diethylamine salt]
> 30000 nM	COc1cccc(Oc2ccc(C(=O)NS(=O)(=O)N(C)C)cc2)c1 [Example 9, N-[(dimethylamino)sulfonyl[-4-(3-methoxyphenoxy)benzamidediethylamine salt]
> 1000 nM	COc1ccccc1Oc1cc(F)c(C(=O)NS(=O)(=O)N(C)C)cc1Cl [Example 12, 5-chloro-N-[(dimethylamino)sulfonyl]-2-fluoro-4-(2-methoxyphenoxy)benzamide diethylamine salt]
> 1000 nM	COc1ccccc1Oc1cc(F)c(C(=O)NS(=O)(=O)N(C)C)cc1F [Example 13, N-[(dimethylamino)sulfonyl]-2,5-difluoro-4-(2-methoxyphenoxy)benzamide]
7500 nM	COc1cccc(Oc2cc(F)c(C(=O)NS(=O)(=O)N(C)C)cc2F)c1 [Example 14, N-[(dimethylamino)sulfonyl]-2,5-difluoro-4-(3-methoxyphenoxy)benzamide diethylamine salt]
> 3000 nM	NS(=O)(=O)NC(=O)c1ccc(Oc2ccc(Cl)cc2-c2ccnnc2)cc1 [Example 15, N-(aminosulfonyl)-4-(4-chloro-2-pyridazin-4-ylphenoxy)benzamide]
4900 nM	CN(C)S(=O)(=O)NC(=O)c1ccc(Oc2ccc(Cl)cc2-c2ccnnc2)cc1 [Example 16, 4-(4-chloro-2-pyridazin-4-ylphenoxy)-N-[(dimethylamino)sulfonyl]benzamide]
200 nM	[2H]C([2H])([2H])C([2H])(Oc1ncc(Oc2cc(F)c(C(=O)NS(=O)(=O)N(C)C)cc2F)cc1Cl)C([2H])([2H])[2H] [Example 17, 4-[(5-chloro-6-isopropoxypyridin-3-yl)oxy]-N-[(dimethylamino)sulfonyl]-2,5-difluorobenzamide-d7]
34000 nM	N#Cc1cc(C(=O)NS(N)(=O)=O)ccc1Oc1ccccc1-c1ccccc1 [Example 18, N-(aminosulfonyl)-4-(biphenyl-2-yloxy)-3-cyanobenzamide diethylamine salt]
10000 nM	CCNS(=O)(=O)NC(=O)c1ccc(Oc2ccccc2-c2ccccc2)c(C#N)c1 [Example 19, 4-(biphenyl-2-yloxy)-3-cyano-N-[(ethylamino)sulfonyl]benzamide diethylamine salt]
1200 nM	CN(C)S(=O)(=O)NC(=O)c1cc(F)c(Oc2cnc(N3CCC(F)C3)c(Cl)c2)cc1F (centres unmarked) [Example 20, 4-{[5-chloro-6-(3-fluoropyrrolidin-1-yl)pyridine-3-yl]oxy}-N-[(dimethylamino)sulfonyl]-2,5-difluorobenzamide formate salt]
600 nM	CN(C)S(=O)(=O)NC(=O)c1cc(F)c(Oc2cnc(NCC3CC3)c(Cl)c2)cc1F [Example 21, 4-({5-chloro-6-[(cyclopropylmethyl)amino]pyridine-3-yl}oxy)-N-[(dimethylamino)sulfonyl]-2,5-difluorobenzamide formate salt]
2500 nM	CN(C)c1ncc(Oc2cc(F)c(C(=O)NS(=O)(=O)N(C)C)cc2F)cc1Cl [Example 22, 4-{[5-chloro-6-(dimethylamino)pyridine-3-yl]oxy}-N-[(dimethylamino)sulfonyl]-2,5-difluorobenzamide formate salt]
670 nM	CN(CC1CC1)c1ncc(Oc2cc(F)c(C(=O)NS(=O)(=O)N(C)C)cc2F)cc1Cl [Example 23, 4-({5-chloro-6-[(cyclopropylmethyl)(methyl)amino]pyridine-3-yl}oxy)-N-[(dimethylamino)sulfonyl]-2,5-difluorobenzamide formate salt]
660 nM	CC(C)N(C)c1ncc(Oc2cc(F)c(C(=O)NS(=O)(=O)N(C)C)cc2F)cc1Cl [Example 24, 4-({5-chloro-6-[isopropyl(methyl)amino]pyridine-3-yl}oxy)-N-[(dimethylamino)sulfonyl]-2,5-difluorobenzamide formate salt]
9800 nM	CNc1ncc(Oc2cc(F)c(C(=O)NS(=O)(=O)N(C)C)cc2F)cc1Cl [Example 25, 4-{[5-chloro-6-(methylamino)pyridine-3-yl]oxy}-N-[(dimethylamino)sulfonyl]-2,5-difluorobenzamide formate salt]
480 nM	CN(C)S(=O)(=O)NC(=O)c1cc(F)c(Oc2cnc(N3CCCC3)c(Cl)c2)cc1F [Example 26, 4-[(5-chloro-6-pyrrolidin-1-ylpyridin-3-yl)oxy]-N-[(dimethylamino)sulfonyl]-2,5-difluorobenzamide formate salt]
160 nM	CN(C)S(=O)(=O)NC(=O)c1cc(F)c(Oc2cnc(NC34CC(C3)C4)c(Cl)c2)cc1F [Example 28, 4-{[6-(pyridin[1.1.1]pent-1-ylamino)-5-chloropyridin-3-yl]oxy}-N-[(dimethylamino)sulfonyl]-2,5-difluorobenzamide formate salt]
470 nM	CC(C)Oc1ncc(Oc2cc(F)c(C(=O)NS(=O)(=O)N(C)C)cc2F)cc1Cl [Example 30, 4-[(5-chloro-6-isopropoxypyridin-3-yl)oxy]-N-[(dimethylamino)sulfonyl]-2,5-difluorobenzamide]

SMILES	IC50
CC(C)COc1ncc(Oc2cc(F)c(C(=O)NS(=O)(=O)N(C)C)cc2F)cc1Cl [Example 2, 4-[(5-Chloro-6-isobutoxvpvridin-3yl)oxy]-N-[(dimethylamino)sulfonyl]2,5-difluorobenzamide diethylamine salt]	130 nM
CC(C)COc1ncc(Oc2ccc(C(=O)NS(N)(=O)=O)cc2)cc1Cl [Example 10, N-(aminosulfonyl)-4-[(5-chloro-6-isobutoxypyridin-3-yl)oxy]benzamide diethylamine salt]	6300 nM
CC(C)COc1ncc(Oc2ccc(C(=O)NS(=O)(=O)N(C)C)cc2)cc1Cl [Example 11, 4-[(5-chloro-6-isobutoxypyridin-3-yl)oxy]-N-[(dimethylamino)sulfonyl]benzamide diethylamine salt]	2100 nM
C[C@@H]1CCCN1c1ncc(Oc2cc(F)c(C(=O)NS(=O)(=O)N(C)C)cc2F)cc1Cl [Example 29, 4-({5-chloro-6-[(2R)-2-methylpyrrolidin-1-yl]pyridine-3-yl}oxy)-N-[(dimethylamino)sulfonyl]-2,5-dfluorobenzamide formate salt]	240 nM
